Patent US20100022646A1, “METHOD OF NEUTRALISING ORGANOBORONATES WITH ACIDS” (priority 2004, published 2010)
pIC50: −log10 of the molar value.

Legend:
thrombin [1] = biological target: T1, thrombin (Homo sapiens, UniProt P00734); test: Thrombin amidolytic assay (FIGS. 1 to 3): neutralisation of TRI 50c inhibition of thrombin; assay type: biochemical; details: for TRI 50c neutralising activity: FIG. 2, cholesterol linoleic acid esters and free linoleic acids, stereoisomers; for neutralising ability against TRI 50c: FIG. 3, over 30 minutes; for neutralising the effect of TRI 50c (thrombin activity restored): added after 100 nM TRI 50c
T1 construct: purchased Haematologic Technologies Inc
Method: Peptide boronate inhibitors were synthesised by Trigen Limited. Thrombin was obtained from Haematologic Technologies Inc. Chromogenic substrate was obtained from Quadratech. Linoleic acid analogues were obtained from Cayman Chemicals USA. Buffer reagents were obtained from Merck.
Peptide boronate inhibitor of thrombin (TRI 50c, 100 nM) was incubated with thrombin (33.3 ng/ml) in assay buffer (100 mM sodium phosphate, 200 mM NaCl, 0.5% PEG 6000 and 0.02% sodium azide, pH 7.5) for 5 minutes at 37° C. Test compounds were then added and incubated for various amounts of time prior to the addition of S2238 chromogenic substrate (5 uM). The reaction was followed at […] and 37° C. using a Thermomax kinetic plate reader (Molecular Devices Corporation). Results of the assay are expressed as percentage activities of thrombin relative to that seen in the absence of inhibitor or antidote.

thrombin [2] = test: IC50 values: percentage reversal of TRI 50c inhibition of thrombin by hydroxy fatty acid; assay type: biochemical; details: thrombin 33.3 ng/ml, TRI 50c 300 nM final, 30 minutes at 37° C., S2238
Method: 50 μl thrombin (33.3 ng/ml in assay buffer) and 20 μl TRI 50c (300 nM final) were added to 10 μl assay buffer (100 mM Na orthophosphate (80% Na2HPO4 and 20% NaH2PO4), 200 mM NaCl, 0.5% PEG 6000, 0.02% Na azide, pH 7.5) and incubated for 5 minutes at 37° C. After the incubation period 100 μl of hydroxy fatty acid was added and further incubated for 30 minutes at 37° C. […] Results were expressed as percentage reversal of TRI 50c inhibition.

[3] = Assay for deboronation (LCMS of TGN 255/9(S)-HODE mixture); details: TGN 255 6.7 mg/ml, 9(S)-HODE 0.01 mg/ml, 37° C. 30 mins, then room temperature overnight; uv chromatogram and mass
Method: This Example relates to a method for detecting the amount of deboronation of a product, TRI 50, in the presence of 9-HODE. A proposed mechanism for the degradation of TRI 50 is shown below.
The thrombin buffer was made up of 100 mM NaOphosphate [80% Na2HPO4 (11.36 g/l anhydrous)+20% NaH2PO4 (2.4 g/l anhydrous)], 200 mM NaCl (11.688 g/l), 0.5% PEG 6000 (5 g/l), 0.02% Na azide (0.2 g/l), pH 7.5.
TGN 255 (20 mg) was dissolved in DMSO (1.9 ml). To this was added thrombin buffer (0.8 ml), followed by 9(S)-HODE (supplied by Cayman Chemical) in thrombin buffer (0.3 ml, 337 uM). The solution was incubated at 37° C. for 30 mins.
Samples of TGN 255 (14 mg/ml in methanol) and Impurity I (5.6 mg/ml in methanol) were prepared as standards. The 9(S)-HODE assay sample was allowed to stand at room temperature overnight and analysed the following day.

[4] = Neutralisation by cholesteryl linoleate hydroperoxide (residual TRI-50b concentration)
Method: Cholesteryl linoleate hydroperoxide (44 μM) was incubated with TRI-50b in the range 0 to 4.9 mM. Samples were taken at timed intervals and the residual TRI-50b concentration was determined by Method C (Materials and Methods).

Molecule	pIC50 (thrombin [2])	also measured
COCCC[C@H](NC(=O)[C@@H]1CCCN1C(=O)[C@@H](Cc1ccccc1)NC(=O)OCc1ccccc1)B(O)O [TRI 50c, Cbz-(R)-Phe-(S)-Pro-(R)-Mpg-B(OH)2, reference compound]		thrombin activity as compared with the control (no TRI 50c present) (thrombin [1]; FIG. 1, addition of 100 nM TRI 50c, thrombin 33.3 ng/ml, S2238 substrate): approximately 50%
CCCCC/C=C\C=C\C(O)CCCCCCCCCC(=O)O (racemic) [(+/−)11-HEDE]	< 4.52	
CC1(C)[C@@]2(C)CC[C@]1(C)[C@H](CC(=O)O)[C@H]2O [(−)-Isoborneolacetic Acid, reference compound]	< 4.52	
CC/C=C\C/C=C\C=C\[C@@H](O)CCCCCCCC(=O)O [9(S)-HOTRE]	< 4.52	
CCCCC/C=C\C/C=C\CC(O)C(O)C/C=C\CCCC(=O)O (racemic) [(+/−)8,9-DIHETRE]	< 4.52	
CCCCC/C=C\C/C=C\C=C\[C@@H](O)CCCCCCC(=O)O [8(S)-HETRE, 8(S)-hydroxy-9E, 11Z, 14Z-eicosatrienoic acid]	4.80	
CCCCC/C=C\C=C\[C@@H](O)CCCCCCCC(=O)O [9(S)-HODE, 9(S)-hydroxy-10E,12Z-octadecadienoic acid]	4.92	TRI 50c neutralising activity (thrombin [1]): particularly good; neutralising ability against TRI 50c (thrombin [1]): particularly good effect; deboronation/degradation of TGN 255 to Impurity I [3]: degradation has occurred
CC/C=C\C/C=C\C/C=C\C=C\[C@@H](O)C/C=C\CCCC(=O)O [8(S)-HEPE, 8(S)-hydroxy-5Z, 9E, 11Z, 14Z, 17Z-eicosapentaenoic acid]	4.85	
CCCCC[C@@H](/C=C/C=C\CCCCCCCC(=O)O)OO [13(S)-HpODE, 13(S)-hydroperoxy-octadecadienoic acid]		TRI 50c neutralising activity (thrombin [1]): particularly good
cholesterol hydroperoxylinoleic acid ester [CLOOH]		neutralising the effect of TRI 50c (thrombin activity restored) (thrombin [1]; FIG. 1): effective in neutralising the effect of TRI 50c; TRI 50c neutralising activity (thrombin [1]): particularly good; equivalence of neutralisation ([4]; 44 μM cholesteryl linoleate hydroperoxide mixed with TRI-50b): approximately 1 mole/mole; rate of neutralisation of TRI-50b ([4]; 44 μM cholesteryl linoleate hydroperoxide, TRI-50b 0 to 4.9 mM): high rate of neutralisation
COC(=O)[C@H]1CC2CCC1[C@@H](O)C2 (stereo in doubt) [Methyl 6-hydroxybicyclo[2.2.2]octane-2-carboxylate, reference compound]	< 4.52	
CCCCC/C=C\C=C\[C@@H](O)CCCCCCCC(=O)OC1CC[C@@]2(C)C(=CCC3C4CCC(C(C)CCCC(C)C)[C@@]4(C)CCC32)C1 (stereo partly drawn) [9(S)-HODE cholesteryl ester]	5.36	TRI 50c neutralising activity (thrombin [1]): particularly good; neutralising ability against TRI 50c (thrombin [1]): very good
9,13- hydroxy cholesterol linoleic acid ester [9/13-CLOH]		neutralising the effect of TRI 50c (thrombin activity restored) (thrombin [1]; FIG. 1): effective in neutralising the effect of TRI 50c
CCCCCC=CC=CC(O)CCCCCCCC(=O)O[C@H]1CC[C@@]2(C)C(=CC[C@H]3[C@@H]4CC[C@H]([C@H](C)CCCC(C)C)[C@@]4(C)CC[C@@H]32)C1 (stereo partly shown) [9-CLOH, 9-hydroxy cholesterol linoleic acid ester]		neutralising the effect of TRI 50c (thrombin activity restored) (thrombin [1]; FIG. 1): effective in neutralising the effect of TRI 50c
CCCCC/C=C\C/C=C\C/C=C\C=C\C(O)CCCC(=O)O (racemic) [(+/−)5-HETE]	< 4.52	
C[C@H]1CCC/C=C/C2C[C@H](O)CC2[C@H](O)/C=C/C(=O)O1 (single isomer, unassigned; (+)) [(+)-Brefeldin A, reference compound]	< 4.52	
CCCCC/C=C\C=C\[C@H](CCCCCCCC(=O)O)OO [9(S)-HpODE, 9-(S)-hydroperoxy-10E,12Z-octadecadienoic acid]	< 4.52	
CCCCC/C=C\C/C=C\C/C=C\C=C\[C@H](CCCC(=O)O)OO [5(S)-HPETE]	4.60	
CCCCC/C=C\C/C=C\C=C\C(O)C/C=C\CCCC(=O)O (racemic) [(+/−)8-HETE]	< 4.52	
CCCCC/C=C\C=C\[C@H](O)CCCCCCCC(=O)O [9(R)-HODE]	< 4.52	
